Where two headings read alike, the source gives them in different places.
Biological target: PRC2 complex (EZH2 Y641F/EED/SUZ12/RbAp48/AEBP2) (Homo sapiens (Human), UniProt Q15910, Y641F)
Test: Activity of a compound to PRC2 complex (EZH2 Y641F), HTRF
[1] = read-out: IC50 (EZH2_Y641F), EZH2 Y641F PRC2 complex, HTRF, class symbols

Sequence of PRC2 complex (EZH2 Y641F/EED/SUZ12/RbAp48/AEBP2) (Q15910 whole entry Y641F): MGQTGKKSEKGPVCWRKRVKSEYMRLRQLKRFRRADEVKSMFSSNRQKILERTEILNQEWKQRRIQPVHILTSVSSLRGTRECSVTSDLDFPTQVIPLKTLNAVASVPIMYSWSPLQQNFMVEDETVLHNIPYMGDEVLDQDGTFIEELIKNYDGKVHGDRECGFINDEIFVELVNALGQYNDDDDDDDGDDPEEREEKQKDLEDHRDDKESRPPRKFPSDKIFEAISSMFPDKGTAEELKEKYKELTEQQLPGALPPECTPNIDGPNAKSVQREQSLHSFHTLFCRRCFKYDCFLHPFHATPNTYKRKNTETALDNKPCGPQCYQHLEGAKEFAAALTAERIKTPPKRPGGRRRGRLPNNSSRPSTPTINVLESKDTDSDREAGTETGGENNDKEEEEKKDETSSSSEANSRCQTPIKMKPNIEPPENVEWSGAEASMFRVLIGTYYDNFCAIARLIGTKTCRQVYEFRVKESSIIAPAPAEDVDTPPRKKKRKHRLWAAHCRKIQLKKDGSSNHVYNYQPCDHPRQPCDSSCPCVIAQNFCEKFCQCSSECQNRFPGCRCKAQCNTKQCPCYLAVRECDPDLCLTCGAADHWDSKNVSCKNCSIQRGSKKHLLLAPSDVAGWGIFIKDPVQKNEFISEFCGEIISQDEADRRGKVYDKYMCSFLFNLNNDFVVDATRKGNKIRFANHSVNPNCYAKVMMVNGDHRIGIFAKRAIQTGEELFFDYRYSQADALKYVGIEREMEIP
Sequence of PRC2 complex (EZH2 Y641F/EED/SUZ12/RbAp48/AEBP2) (O75530 whole entry partner): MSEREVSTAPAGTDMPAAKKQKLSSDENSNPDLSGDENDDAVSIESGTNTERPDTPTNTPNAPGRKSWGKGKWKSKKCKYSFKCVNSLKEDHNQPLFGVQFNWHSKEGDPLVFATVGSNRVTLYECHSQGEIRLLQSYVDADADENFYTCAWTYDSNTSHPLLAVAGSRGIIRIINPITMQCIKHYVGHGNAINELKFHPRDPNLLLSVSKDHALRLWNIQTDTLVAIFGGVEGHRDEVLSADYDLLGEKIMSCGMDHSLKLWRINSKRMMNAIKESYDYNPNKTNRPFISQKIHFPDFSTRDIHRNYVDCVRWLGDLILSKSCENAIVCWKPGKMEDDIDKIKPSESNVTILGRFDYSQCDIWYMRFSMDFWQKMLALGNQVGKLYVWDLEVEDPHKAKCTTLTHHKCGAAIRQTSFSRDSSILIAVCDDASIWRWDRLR
Sequence of PRC2 complex (EZH2 Y641F/EED/SUZ12/RbAp48/AEBP2) (Q15022 whole entry partner): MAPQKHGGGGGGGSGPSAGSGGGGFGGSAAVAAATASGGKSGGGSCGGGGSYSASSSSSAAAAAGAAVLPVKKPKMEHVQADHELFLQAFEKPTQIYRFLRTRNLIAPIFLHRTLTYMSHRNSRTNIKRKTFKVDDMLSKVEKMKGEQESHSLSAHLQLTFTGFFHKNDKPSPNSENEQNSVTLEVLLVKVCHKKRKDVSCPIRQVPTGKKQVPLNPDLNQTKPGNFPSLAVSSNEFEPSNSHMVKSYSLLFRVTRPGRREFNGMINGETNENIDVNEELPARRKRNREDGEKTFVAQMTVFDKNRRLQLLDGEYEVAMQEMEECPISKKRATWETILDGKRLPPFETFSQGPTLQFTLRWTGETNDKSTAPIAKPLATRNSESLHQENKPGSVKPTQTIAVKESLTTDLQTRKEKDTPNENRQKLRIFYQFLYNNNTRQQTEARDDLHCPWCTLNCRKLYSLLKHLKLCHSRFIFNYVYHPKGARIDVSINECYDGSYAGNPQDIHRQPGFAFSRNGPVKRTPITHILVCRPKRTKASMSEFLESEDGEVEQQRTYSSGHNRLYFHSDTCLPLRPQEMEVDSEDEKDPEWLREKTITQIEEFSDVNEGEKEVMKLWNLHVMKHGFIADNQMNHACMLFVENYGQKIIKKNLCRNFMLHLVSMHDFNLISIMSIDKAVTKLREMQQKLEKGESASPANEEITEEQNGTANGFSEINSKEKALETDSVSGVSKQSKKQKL
Sequence of PRC2 complex (EZH2 Y641F/EED/SUZ12/RbAp48/AEBP2) (Q09028 whole entry partner): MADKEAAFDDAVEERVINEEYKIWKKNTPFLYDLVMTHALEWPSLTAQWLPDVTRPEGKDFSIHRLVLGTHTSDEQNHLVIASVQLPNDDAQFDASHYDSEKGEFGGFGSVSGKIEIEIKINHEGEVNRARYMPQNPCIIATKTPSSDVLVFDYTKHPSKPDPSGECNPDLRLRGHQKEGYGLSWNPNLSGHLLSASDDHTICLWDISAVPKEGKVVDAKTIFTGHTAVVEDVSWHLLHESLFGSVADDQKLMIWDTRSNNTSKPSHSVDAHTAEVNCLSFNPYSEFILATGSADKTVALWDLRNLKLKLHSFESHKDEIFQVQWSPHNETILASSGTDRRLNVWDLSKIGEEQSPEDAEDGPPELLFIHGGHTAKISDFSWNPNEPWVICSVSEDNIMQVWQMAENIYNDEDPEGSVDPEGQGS
Sequence of PRC2 complex (EZH2 Y641F/EED/SUZ12/RbAp48/AEBP2) (Q6ZN18 whole entry partner): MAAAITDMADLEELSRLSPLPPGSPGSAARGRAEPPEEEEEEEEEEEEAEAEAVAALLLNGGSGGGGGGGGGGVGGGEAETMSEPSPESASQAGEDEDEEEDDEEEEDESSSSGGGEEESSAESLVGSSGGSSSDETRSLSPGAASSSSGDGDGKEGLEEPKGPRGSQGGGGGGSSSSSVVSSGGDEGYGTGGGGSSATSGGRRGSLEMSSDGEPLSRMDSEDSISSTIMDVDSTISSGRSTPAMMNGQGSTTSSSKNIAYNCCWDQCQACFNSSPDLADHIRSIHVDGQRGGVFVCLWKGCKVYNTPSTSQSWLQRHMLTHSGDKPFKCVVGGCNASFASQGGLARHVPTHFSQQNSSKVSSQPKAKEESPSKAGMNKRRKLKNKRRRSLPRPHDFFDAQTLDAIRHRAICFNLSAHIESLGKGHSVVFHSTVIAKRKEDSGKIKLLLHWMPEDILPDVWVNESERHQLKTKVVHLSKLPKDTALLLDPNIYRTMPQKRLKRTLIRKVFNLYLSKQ

IC50 [1] [nM]	Compound	IC50 [nM]
< 100	CNc1ccc(-c2ccn3c([C@H](C)N4CCN(CC(F)(F)F)CC4)c(C)c(C(=O)NCc4c(OC)cc(C)[nH]c4=O)cc23)cn1 (single isomer, unassigned) [Compound 165, (S)—N-((4-methoxy-6-methyl-2-oxo-1,2-dihydropyridin-3-yl)methyl)-6-methyl-1-(6-(methylamino)pyridin-3-yl)-5-(1-(4-(2,2,2-trifluoroethyl)piperazin-1-yl)ethyl)indolizine-7-formamide or (R)—N-((4-methoxy-6-methyl-2-oxo-1,2-dihydropyridin-3-yl)methyl)-6-methyl-1-(6-(methylamino)pyridin-3-yl)-5-(1-(4-(2,2,2-trifluoroethyl)piperazin-1-yl)ethyl)indolizine-7-formamide]	
< 100	Cc1cc(C)c(CNC(=O)c2cc3c(-c4ccccc4)ccn3c(C(C)N3CCOCC3)c2C)c(=O)[nH]1 (stereo not drawn) [Example 81]	
< 100	COc1cc(C)[nH]c(=O)c1CNC(=O)c1cc2c(-c3cc(C)nc(C)c3)ccn2c(C(C)N2CCN(CC(F)(F)F)CC2)c1C (stereo not drawn) [Compound 173]	
100 to 1000	COc1cc(C)[nH]c(=O)c1CNC(=O)c1cc2c(-c3cc(C)nc(C)c3)ccn2c([C@H](C)N2CCN(CC(F)(F)F)CC2)c1C (single isomer, unassigned) [Compound 175, (S)-1-(2,6-dimethylpyridin-4-yl)-N-((4-methoxy-6-methyl-2-oxo-1,2-dihydropyridine-3-yl)methyl)-6-methyl-5-(1-(4-(2,2,2-trifluoroethyl)piperazin-1-yl)ethyl)indolizine-7-carboxamide or (R) 1-(2,6-dimethylpyridin-4-yl)-N-((4-methoxy-6-methyl-2-oxo-1,2-dihydropyridine-3-yl)methyl)-6-methyl-5-(1-(4-(2,2,2-trifluoroethyl)piperazin-1-yl)ethyl)indolizine-7-carboxamide]	
< 100	Cc1cc(C)c(CNC(=O)c2cc3c(-c4cnn(C5CCOCC5)c4)ccn3c(C(C)N3CCN(CC(F)(F)F)CC3)c2C)c(=O)[nH]1 (stereo not drawn) [Compound 190, N-((4,6-dimethyl-2-oxo-1,2-dihydropyridin-3-yl)methyl)-6-methyl-1-(1-(tetrahydro-2H-pyran-4-yl)-1H-pyrazol-4-yl)-5-(1-(4-(2,2,2-trifluoroethyl)piperazin-1-yl)ethyl)indolizine-7-carb oxamide]	
100 to 1000	Cc1cc(C)c(CNC(=O)c2cc3cc(Br)cn3c(C(C)N3CCN(C(=O)CO)CC3)c2C)c(=O)[nH]1 (stereo not drawn) [Example 101]	
< 100	COc1cc(-c2cc3cc(C(=O)NCc4c(C)cc(C)[nH]c4=O)c(C)c(C(C)OC)n3c2)cc(OC)c1OC (stereo not drawn) [Compound 151]	
< 100	Cc1cc(C)c(CNC(=O)c2cc3cccn3c(C(C)OCc3cccs3)c2C)c(=O)[nH]1 (stereo not drawn) [Example 17, N-((4,6-dimethyl-2-oxo-1,2-dihydropyridin-3-yl)methyl)-6-methyl-5-(1-(thiophene-2-ylmethoxy)ethyl)indolizine-7-carboxamide]	
< 100	CNc1cc(-c2ccn3c([C@H](C)N4CCN(CC(F)(F)F)CC4)c(C)c(C(=O)NCc4c(OC)cc(C)[nH]c4=O)cc23)ccn1 (single isomer, unassigned) [Compound 181, (S)—N-((4-methoxy-6-methyl-2-oxo-1,2-dihydropyridin-3-yl)methyl)-6-methyl-1-(2-(methylamino)pyridin-4-yl)-5-(1-(4-(2,2,2-trifluoroethyl)piperazin-1-yl)ethyl)indolizine-7-formamide or (R)—N-((4-methoxy-6-methyl-2-oxo-1,2-dihydropyridin-3-yl)methyl)-6-methyl-1-(2-(methylamino)pyridin-4-yl)-5-(1-(4-(2,2,2-trifluoroethyl)piperazin-1-yl)ethyl)indolizine-7-formamide]	
100 to 1000	Cc1cc(C)c(CNC(=O)c2cc3cc(-c4cncs4)cn3c(C(C)N3CCN(CC(F)(F)F)CC3)c2C)c(=O)[nH]1 (stereo not drawn) [Example 141, N-((4,6-dimethyl-2-oxo-1,2-dihydropyridin-3-yl)methyl)-6-methyl-2-(thiazole-5-yl)-5-(1-(4-(2,2,2-trifluoroethyl)piperazin-1-yl)ethyl)indolizine-7-carboxamide]	
100 to 1000	CNc1cc(-c2ccn3c([C@H](C)N4CCN(CC(F)(F)F)CC4)c(C)c(C(=O)NCc4c(OC)cc(C)[nH]c4=O)cc23)ccn1 (single isomer, unassigned) [Compound 182, (S)—N-((4-methoxy-6-methyl-2-oxo-1,2-dihydropyridin-3-yl)methyl)-6-methyl-1-(2-(methylamino)pyridin-4-yl)-5-(1-(4-(2,2,2-trifluoroethyl)piperazin-1-yl)ethyl)indolizine-7-formamide or (R)—N-((4-methoxy-6-methyl-2-oxo-1,2-dihydropyridin-3-yl)methyl)-6-methyl-1-(2-(methylamino)pyridin-4-yl)-5-(1-(4-(2,2,2-trifluoroethyl)piperazin-1-yl)ethyl)indolizine-7-formamide]	
1000 to 10000	Cc1cc(C)c(CNC(=O)c2cc3cccn3c(C(C)OCC(C)C)c2C)c(=O)[nH]1 (stereo not drawn) [Example 6, N-((4,6-Dimethyl-2-oxo-1,2-dihydropyridin-3-yl)methyl)-5-(1-isobutyloxyethyl)-6-methylindolizine-7-carboxamide]	

More lines, now with the values behind:

Compound	IC50 [1] [nM]	IC50 [nM]
Cc1cc(C)c(CNC(=O)c2cc3cc(-c4cn(C)cn4)cn3c(C(C)N3CCOCC3)c2C)c(=O)[nH]1 (stereo not drawn) [Example 52, N-((4,6-dimethyl-2-oxo-1,2-dihydropyridin-3-yl)methyl)-6-methyl-2-(1-methyl-1H-imidazole-4-yl)-5-(1-morpholineylethyl)indolizine-7-carboxamide]		100 to 1000
COC1CCN(C(C)c2c(C)c(C(=O)NCc3c(C)cc(C)[nH]c3=O)cc3cc(Br)cn23)CC1 (stereo not drawn) [Example 143, 2-Bromo-N-((4,6-dimethyl-2-oxo-1,2-dihydropyridin-3-yl)methyl)-6-methyl-5-(1-(4-methoxypiperidin-1-yl)ethyl)indolizine-7-carboxamide]		100 to 1000
Cc1cc(C)c(CNC(=O)c2cc3cc(C4=CCNCC4)cn3c(C(C)N3CCOCC3)c2C)c(=O)[nH]1 (stereo not drawn) [Example 45, N-((4,6-dimethyl-2-oxo-1,2-dihydropyridin-3-yl)methyl)-6-methyl-5-(1-morphinolinylethyl)-2-(1,2,3,6-tetrahydropyridin-4-yl)indolizine-7-carboxamide]	1000 to 10000	
Cc1cc(C)c(CNC(=O)c2cc3cc(Br)cn3c(C(C)N3CCC(F)(F)CC3)c2C)c(=O)[nH]1 (stereo not drawn) [Example 122]	100 to 1000	
(S)-1-Chloro-N-((4,6-dimethyl-2-oxo-1,2-dihydropyridin-3-yl)methyl)-6-methyl-5-(1-morphinolinylethyl)pyridazin-7-carboxamide or (R)-1-chloro-N-((4,6-dimethyl-2-oxo-1,2-dihydro)pyridin-3-yl)methyl)-6-methyl-5-(1-morphinolinylethyl)pyridazin-7-carboxamide [Example 28]	< 100	
Cc1cc(C)c(CNC(=O)c2cc3cc(-c4cncs4)cn3c(C(C)N3CCC(N(C)C)CC3)c2C)c(=O)[nH]1 (stereo not drawn) [Example 139]		< 100
Cc1cc(C)c(CNC(=O)c2cc3cc(Br)cn3c(C(C)Oc3ccc(N(C)C)cc3)c2C)c(=O)[nH]1 (stereo not drawn) [Example 30]	< 100	
COc1cccc(-c2ccn3c(C(C)N4CCOCC4)c(C)c(C(=O)NCc4c(C)cc(C)[nH]c4=O)cc23)c1 (stereo not drawn) [Example 120, N-((4,6-dimethyl-2-oxo-1,2-dihydropyridin-3-yl)methyl)-6-methyl-5-(1-morpholinylethyl)-1-(3-methoxyphenyl)indolizine-7-amide]	< 100	
CCN(c1c(C)c(C(=O)NCc2c(OC)cc(C)[nH]c2=O)cc2c(-c3ccnc(N(C)C)c3)ccn12)C1CCN(CC(F)(F)F)CC1 [Compound 203, 1-(2-(dimethylamino)pyridin-4-yl)-5-(ethyl(1-(2,2,2-trifluoroethyl)piperidin-4-yl)amino)-N-((4-methoxy-6-methyl-2-oxo-1,2-dihydropyridin-3-yl)methyl)-6-methylindolizine-7-carboxamide]	< 100	
N-((4-methoxy-6-methyl-2-oxo-1,2-dihydropyridin-3-yl)methyl)-6-methyl-1-(2-methylpyridin-3-yl)-5-(1-(4-(2,2,2-trifluoroethyl)piperazin-1-yl)ethyl)indolizine-7-carboxamide [Compound 166]	< 100	
Cc1cc(C)c(CNC(=O)c2cc3cc(-c4ccn[nH]4)cn3c(C(C)N3CCOCC3)c2C)c(=O)[nH]1 (stereo not drawn) [Example 112, N-((4,6-dimethyl-2-oxo-1,2-dihydropyridin-3-yl)methyl)-6-methyl-5-(1-morpholinoethyl)-2-(pyrazol-5-yl)indolizine-7-carboxamide]	< 100	
COc1ccc(-c2cc3cc(C(=O)NCc4c(C)cc(C)[nH]c4=O)c(C)c(C(C)N4CCOCC4)n3c2)c(F)c1 (stereo not drawn) [Example 43, N-((4,6-dimethyl-2-oxo-1,2-dihydropyridin-3-yl)methyl)-2-(2-fluoro-4-methoxyphenyl)-6-methyl-5-(1-morphinolinylethyl)indolizine-7-carboxamide]	< 100	
Cc1cc(C)c(CNC(=O)c2cc3cc(Cl)cn3c(C(C)N3CCOCC3)c2C)c(=O)[nH]1 (stereo not drawn) [Example 69, 2-chloro-N-((4,6-dimethyl-2-oxo-1,2-dihydropyridin-3-yl)methyl)-6-methyl-5-(1-morphinolinylethyl)indolizine-7-carboxamide]	< 100	
Cc1cc(C)c(CNC(=O)c2cc3cc(-c4cccnc4)cn3c(C(C)N3CCOCC3)c2C)c(=O)[nH]1 (stereo not drawn) [Example 33, N-((4,6-dimethyl-2-oxo-1,2-dihydropyridin-3-yl)methyl)-6-methyl-5-(1-morphinolinylethyl)-2-(pyridin-3-yl)indolizine-7-carboxamide]	< 100	
COc1ccc(-c2ccn3c(C(C)N4CCOCC4)c(C)c(C(=O)NCc4c(C)cc(C)[nH]c4=O)cc23)cc1 (stereo not drawn) [Example 121, N-((4,6-dimethyl-2-oxo-1,2-dihydropyridin-3-yl)methyl)-6-methyl-5-(1-morpholinylethyl)-1-(4-methoxyphenyl)indolizine-7-carboxamide]		100 to 1000

Source: US10968215B2 (SHANGHAI HAIHE PHARMACEUTICAL CO., LTD., priority 2016, dated 2021)
